From ChEMBL document CHEMBL1201862, “PubChem BioAssay data set” (2004) come the findings set out here.

Assay [1] addresses T1, Calpain-2 catalytic subunit (Sus scrofa, UniProt P43367).
T1 sequence (P43367 whole entry): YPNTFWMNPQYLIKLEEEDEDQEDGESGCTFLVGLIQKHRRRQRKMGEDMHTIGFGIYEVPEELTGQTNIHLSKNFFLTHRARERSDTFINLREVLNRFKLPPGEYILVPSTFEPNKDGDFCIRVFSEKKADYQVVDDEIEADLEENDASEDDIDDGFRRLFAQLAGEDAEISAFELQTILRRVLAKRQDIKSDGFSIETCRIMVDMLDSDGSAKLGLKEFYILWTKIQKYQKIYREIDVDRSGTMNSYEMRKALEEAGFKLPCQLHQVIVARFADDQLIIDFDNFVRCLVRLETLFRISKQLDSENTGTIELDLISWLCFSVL
Description: m-calpain protease blockers, concentration series – biochemical, fluorogenic peptide substrate, dose response (AID 1420). The class given is functional.

Assay [2] is described as follows: NIH-3T3 fibroblast cytotoxicity, dose response, cytotoxicity control, cell-based, fluorescence, Alamar Blue, secondary assay (AID 2327).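 Further: NIH-3T3 mouse fibroblasts cultured with fluconazole at 8 µg/mL.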 It counts as functional. In general terms: Alamar Blue is a resazurin reagent that responds to reducing activity.
Assay [3] in a line: fluconazole-exposed Candida albicans growth modulators – fluorescence, retest, confirmation (AID 2467). It counts as functional, cell-based.
In assay [4] the target is T2, RNA-binding protein pos-1 (Caenorhabditis elegans, UniProt G5EF15).
T2 sequence (G5EF15 whole entry): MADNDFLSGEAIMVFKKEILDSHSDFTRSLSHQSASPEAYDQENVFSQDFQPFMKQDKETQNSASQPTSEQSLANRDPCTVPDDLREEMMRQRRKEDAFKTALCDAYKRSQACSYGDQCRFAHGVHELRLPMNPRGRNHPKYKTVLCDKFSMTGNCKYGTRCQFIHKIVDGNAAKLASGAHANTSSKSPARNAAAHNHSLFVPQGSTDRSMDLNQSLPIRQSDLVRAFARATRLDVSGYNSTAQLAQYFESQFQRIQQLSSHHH
Briefly: disruptors of C. elegans POS-1 RNA interaction – biochemical, fluorescence polarization, dose response (AID 1964).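 Further: purified POS-1 fused to maltose binding protein made in E. coli; potency of compounds blocking POS-1 binding to fluorescent RNA.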 Background: Polarisation of emitted light reports the rotation of a fluorescent probe.

Assay [5] has as its target T3, Zinc finger protein mex-5 (Caenorhabditis elegans, UniProt Q9XUB2).
T3 sequence (Q9XUB2 whole entry): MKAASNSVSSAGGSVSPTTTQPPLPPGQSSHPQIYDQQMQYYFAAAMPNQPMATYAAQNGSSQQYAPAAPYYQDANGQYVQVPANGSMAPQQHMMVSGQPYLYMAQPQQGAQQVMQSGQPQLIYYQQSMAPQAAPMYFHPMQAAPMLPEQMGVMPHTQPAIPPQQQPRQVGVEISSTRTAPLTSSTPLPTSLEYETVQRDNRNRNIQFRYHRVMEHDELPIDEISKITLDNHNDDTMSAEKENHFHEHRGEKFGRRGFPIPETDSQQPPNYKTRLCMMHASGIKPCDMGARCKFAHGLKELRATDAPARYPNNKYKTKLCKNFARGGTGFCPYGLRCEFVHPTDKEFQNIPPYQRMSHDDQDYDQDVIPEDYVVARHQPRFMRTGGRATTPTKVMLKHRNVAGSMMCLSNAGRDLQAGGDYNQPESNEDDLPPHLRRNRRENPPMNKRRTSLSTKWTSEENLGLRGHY
Briefly: potency of MEX-5 RNA-binding blockers – biochemical, C. elegans, fluorescence polarization, dose response (AID 1960).

Assay [6] can be described thus: Trypanosoma cruzi growth suppression in host cells – NIH3T3 host cells, beta-gal luminescence, confirmation (AID 2044).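 Further: intracellular parasites grown in NIH/3T3 mouse fibroblasts as host cells; luminescent beta-galactosidase reporter signal from transgenic T. cruzi replicating inside host cells; inhibitors lower the luminescence signal.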 It counts as functional, cell-based.
The nature of assay [7]: NIH3T3 cell viability loss – ATP luminescence, mouse fibroblasts, counter-screen, dose response (AID 2010).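 Further: cells exposed to compound for about 90 hours before reading.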 It counts as functional, cell-based. In general terms: Counterscreens check selectivity or assay interference.
The subject of another assay is H9c2. Description: cells. The class given is functional, cell-based. Conditions: Rattus norvegicus, H9c2, Myocardium.
A short description of assay [8]: Luminescence Cell-Based Dose Confirmation HTS to Identify Activators of 5'UTR Stem-Loop Driven Alpha-Synuclein mRNA Translation in H4 Neuroglioblastoma Cells. [Related pubchem assays: 1829 (Project Summary), 1814 (Primary HTS)]. The class given is functional.
The test system of a further assay is H4. Briefly: Luminescence Cell-Based Dose Response HTS to Identify Activators of 5'UTR Stem-Loop Driven Prion Protein mRNA Translation in H4 Neuroglioblastoma Cells. [Related pubchem assays: 1829 (Project Summary), 1814 (Primary HTS)]. The class given is functional. To be noted: Homo sapiens.
Assay [9] concerns the target T4, Corticotropin-releasing factor receptor 2/Corticotropin-releasing factor-binding protein (Homo sapiens, UniProt P24387+Q13324).
T4 sequence (Q13324 whole entry): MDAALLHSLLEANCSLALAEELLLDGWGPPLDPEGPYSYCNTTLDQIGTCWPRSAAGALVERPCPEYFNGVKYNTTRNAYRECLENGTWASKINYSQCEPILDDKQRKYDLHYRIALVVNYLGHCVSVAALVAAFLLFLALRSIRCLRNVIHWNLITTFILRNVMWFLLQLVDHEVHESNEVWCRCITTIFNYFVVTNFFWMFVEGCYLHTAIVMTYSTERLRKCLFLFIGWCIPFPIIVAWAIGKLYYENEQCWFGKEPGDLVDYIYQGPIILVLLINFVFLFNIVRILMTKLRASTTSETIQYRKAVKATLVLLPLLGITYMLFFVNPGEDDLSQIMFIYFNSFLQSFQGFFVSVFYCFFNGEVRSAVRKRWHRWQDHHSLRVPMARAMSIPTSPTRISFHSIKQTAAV
T4 sequence (P24387 whole entry): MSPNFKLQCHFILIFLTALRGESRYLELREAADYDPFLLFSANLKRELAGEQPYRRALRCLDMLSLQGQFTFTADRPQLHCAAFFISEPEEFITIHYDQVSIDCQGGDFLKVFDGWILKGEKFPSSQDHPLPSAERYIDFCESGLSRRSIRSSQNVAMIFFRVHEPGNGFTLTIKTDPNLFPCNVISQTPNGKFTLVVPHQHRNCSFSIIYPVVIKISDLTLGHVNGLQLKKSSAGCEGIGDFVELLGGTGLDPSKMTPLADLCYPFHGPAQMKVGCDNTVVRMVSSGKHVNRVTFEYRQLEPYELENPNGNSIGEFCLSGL
Briefly: activators of CRF receptor 2 with binding protein – uHTS hits, confirmation (AID 602473). The class given is functional. Conditions: read-out: EC50_Mean.

Assay [10] has as its target T4, Corticotropin-releasing factor receptor 2/Corticotropin-releasing factor-binding protein. Briefly: Dose Response confirmation of uHTS hits for small molecule antagonists of the CRF-binding protein and CRF-R2 receptor complex. It counts as functional. Conditions: read-out: IC50_Mean.
Assay [11] can be described thus: Luminescence Cell-Based Dose Response HTS to Identify Activators of Luciferase Translation or Activity in H4 […] Cells. [Related pubchem assays: 1829 (Project Summary), 1814 (Primary HTS)]. The class given is functional.
The next assay deals with Cytochrome P450 2C9 (Homo sapiens, UniProt P11712).
Sequence of Cytochrome P450 2C9 (P11712 whole entry): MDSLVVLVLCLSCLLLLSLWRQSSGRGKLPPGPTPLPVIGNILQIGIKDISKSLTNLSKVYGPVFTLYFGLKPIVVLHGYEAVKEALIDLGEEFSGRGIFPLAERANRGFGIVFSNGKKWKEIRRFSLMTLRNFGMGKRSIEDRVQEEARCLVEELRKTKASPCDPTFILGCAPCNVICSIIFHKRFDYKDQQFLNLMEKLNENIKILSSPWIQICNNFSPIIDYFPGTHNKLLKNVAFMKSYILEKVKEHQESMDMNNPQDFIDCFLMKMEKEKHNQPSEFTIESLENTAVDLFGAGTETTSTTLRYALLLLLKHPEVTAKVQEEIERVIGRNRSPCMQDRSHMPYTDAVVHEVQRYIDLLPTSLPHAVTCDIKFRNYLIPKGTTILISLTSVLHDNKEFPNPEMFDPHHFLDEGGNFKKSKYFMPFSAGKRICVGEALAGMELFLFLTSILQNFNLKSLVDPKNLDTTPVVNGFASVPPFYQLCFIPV

The source made the active and inactive calls. For most assays here, no stated cut-off is given here; in the data, actives have a measured EC50 and inactives only a lower limit. Bounds are passed on as bounds.

For `O=C(O)CC1S/C(=N/N=C/c2ccc(Br)cc2)N(c2ccccc2)C1=O` (centres undefined), the IC50 in assay [1] is 9.55 µM (not active).

On to `CC1(C)C(=O)OC(c2c(F)c(F)c(F)c(F)c2F)C2(CCCCC2)C1=O` (centres undefined), for which the IC50 in assay [1] is 4.17 µM (not active).

Consider `CCCCOP(=O)(c1ccc(N(C)C)cc1)C(O)c1ccccc1F` (centres undefined), for which the EC50 in assay [2] was > 150 µM (inactive); in assay [3] it was 2.56 µM (active).

In the case of `CC1CCN(Cc2cnc(Cl)s2)CC1`, in [1], the IC50 is on record as 1.78 µM (not active).

Take `CC(C)CCNC(=O)NC(=O)CSc1nnc(-c2ccccc2Br)o1`: the IC50 in [1] is reported as > 50 µM (not active).

Regarding `C=CCSc1nnc(N2C(=O)C(O)=C(C(=O)c3ccco3)C2c2ccccc2F)s1` (centres undefined), the EC50 in assay [4] is 48.3 µM (active); in [5], 54.8 µM (active).

In the case of `Cc1ccc(Nc2nc(CSc3nnc(-c4ccncc4)n3-c3ccccc3C)cs2)cc1`, the EC50 in assay [6] is 2.47 µM (active); in [2] it was > 160 µM (inactive); in assay [7] it was > 60 µM (inconclusive); in [3], 4.95 µM (active).

For `Cc1ccccc1Nc1scc(-c2ccc(Cl)cc2)[n+]1-c1ccccc1C`, the IC50 in assay [1] is recorded as > 50 µM (not active).

Consider `CSCc1cc(N2CCOCC2)nc(SCc2ccc(Cl)cc2Cl)n1`, for which the IC50 in [1] was 3.57 µM (not active).

On to `O=P(Nc1ccccc1)(Oc1ccccc1)Oc1ccccc1`, for which the IC50 in the assay on H9c2 was > 79 µM (inactive).

As for `O=C(NC1CCCCC1)C(c1ccc2ncccc2c1)N(Cc1cccs1)C(=O)c1cccs1` (centres undefined), the IC50 in the assay on H9c2 is > 79 µM (inactive).

For `COc1ccc(NS(=O)(=O)c2cc(NC(=O)Cc3nnc(O)c4ccccc34)ccc2OC)cc1`, the IC50 in the assay on H9c2 was > 79 µM (inactive).

As to `COc1ccc(CCNC(=O)C(=O)NCC2CCCN2S(=O)(=O)c2cc(C)ccc2C)cc1` (centres undefined), the IC50 with H9c2 was 34.1 µM (inactive).

For the compound `CC(C)CCN(C(=S)NC(=O)C1CCCCC1)c1c(N)n(Cc2ccccc2)c(=O)[nH]c1=O`, the IC50 in assay [1] is on record as > 50 µM (not active).

In the case of `CN(C)S(=O)(=O)c1ccc2c(c1)nc(CCC(=O)NCc1ccc(Cl)cc1)n2C`, the IC50 in [1] is listed as 6.82 µM (not active).

For the compound `CCc1cc(C(=O)Nc2ccc(OC)nc2)sc1C`, the EC50 in assay [4] was 11.8 µM (active); in assay [5], 9.29 µM (active).

With `O=C(CSc1nc(-c2ccco2)cc(C(F)(F)F)n1)NCCc1ccccc1`, the values for the EC50 in assay [2] and in assay [3] were 136 µM (inconclusive) and > 38 µM (not active), respectively.

In the case of `O=C(Nc1ccc2c(c1)OCO2)c1cnn2c(C(F)(F)F)cc(-c3ccco3)nc12`, in the assay with H9c2, the IC50 was > 79 µM (inactive).

As to `CCC(C)n1c(=N)c(C#N)cc2c(=O)n3cc(C)ccc3nc21` (centres undefined), the values for the EC50 in assay [4] and in [5] were > 300 µM (not active) and 254 µM (inconclusive), respectively.

As to `COc1cccc(CN(C)C(=O)C(Cc2ccccc2)NC(=O)c2ccccc2)c1OC` (centres undefined), the IC50 with H9c2 is 6.93 µM (active).

With `CCOC(=O)c1c(NC(=O)COC(=O)Cc2nnc(O)c3ccccc23)sc(C(=O)NC)c1C`, the IC50 in the assay with H9c2 is > 79 µM (inactive).

Turning to `Oc1ccccc1CN(Cc1ccco1)CC(O)COCc1ccc(Cl)cc1` (centres undefined), the IC50 in [1] was 7.83 µM (not active).

Take `O=C(COc1ccccc1C(=O)c1cnn(-c2ccccc2)c1)Nc1ccc2ccccc2c1`: the EC50 is 5.67 µM (active) in [8], 7.44 µM (active) in the assay on H4, > 53 µM (inactive) in [9] and 6.97 µM (active) in assay [11]. Also, the IC50 in assay [10] was > 47.1 µM (inactive).

Regarding `CCN(CC)c1nc(-c2nnn[nH]2)nc(N(CC)CC)n1`, the EC50 in assay [4] and in assay [5] was > 300 µM (not active) throughout.

For `Oc1nc2cc3c(cc2cc1CN(Cc1nnnn1CC1CCCO1)C1CCCCC1)OCO3` (centres undefined), the IC50 with H9c2 was 27.5 µM (active).

For the compound `COc1ccc(OC)c(-c2cc(C(=O)O)c3cc4ccccc4cc3n2)c1`, the AC50 (as a rule, the concentration at which the activity in the assay is half-maximal) on Cytochrome P450 2C9 was 3.16 µM (inconclusive). For the same compound, the EC50 in assay [9] is > 53 µM (inactive). In addition, the IC50 in [10] is > 47.1 µM (inactive).

`CCCc1cc(=O)oc2c(CNc3ccc(OCC)cc3)c(O)ccc12`: the IC50 in the assay on H9c2 is > 79 µM (inactive).

On to `CC(C)CC(=O)Nc1ccc(C(=O)COC(=O)Cc2nnc(O)c3ccccc23)cc1`, for which the IC50 in the assay with H9c2 was 18.4 µM (active).

Consider `O=C1/C(=C/c2ccc(Br)cc2)Oc2cc(O)ccc21`, for which the EC50 was 7.71 µM (active) in assay [4] and 6.67 µM (active) in assay [5].

With `CN1CCN(/C=N/C2=C(C#N)C(c3ccccc3)C3=C(CC(C)(C)CC3=O)O2)CC1` (centres undefined), the EC50 in [4] and in [5] was > 300 µM (not active) each time. The AC50 at Cytochrome P450 2C9 was 14.1 µM (inconclusive).

`CCCCC1=CC2=CC(=O)C(C)(OC(=O)c3ccco3)C(=O)C2=CO1` (centres undefined): the EC50 is 20.5 µM (active) in [4] and 16.2 µM (active) in assay [5].

For the compound `CCCCN1C(=O)NC(=O)/C(=C\NNC(=O)c2ccncc2)C1=O`, the EC50 in assay [4] and in [5] was > 300 µM (not active) in each case.

Take `CNC(=O)NC(=O)C(C)Oc1ccccc1F` (centres undefined): the IC50 in assay [1] is < 0.4 µM (not active).

Turning to `COc1cc(/C=N/n2nnnc2Nc2ccccc2)cc(OC)c1OC`, in the assay on H9c2, the IC50 is 12.4 µM (active).

Regarding `Cc1cc2c3c(c1)C(C)CC(C)(C)N3C(=O)C2=O` (centres undefined), the EC50 in assay [4] and in assay [5] was > 300 µM (not active) in each case.

On to `O=C(CSc1ccc2nnc(-c3ccncc3)n2n1)Nc1nccs1`, for which the IC50 in assay [1] was > 50 µM (not active).

Take `Cc1ccc(S(=O)(=O)NNC(=S)NC(=O)c2ccc([N+](=O)[O-])cc2)cc1`: the EC50 was 31.8 µM (active) in assay [4] and 21.1 µM (active) in assay [5].
